Data taken from PMC8037182, “Solvothermal Synthesis of Multiple Dihydropyrimidinones at a Time as Inhibitors of Eg5” (Molecules, 2021).

Columns and labels:
Caco-2 cell line = experiment: Cytotoxicity MTS assay, Caco-2 cell line; assay type: cell-based; details: for OD490 Mean / OD490 Well 1 / OD490 Well 2 / OD490 Well 3: Caco-2 cell line
How it was run: (§1)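 Absorbance at 490 nm after a 2 h MTS step at 37 °C gave cell viability. Before that, cells plated at 1000/well were treated for 24 h with compounds spanning 0.5–100 µM (final). IC50 values were fitted by non-linear regression of percent viability versus concentration.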

T24 cell line = experiment: Cytotoxicity MTS assay, T24 cell line; assay type: cell-based; details: for OD490 Mean / OD490 Well 1 / OD490 Well 2 / OD490 Well 3: T24 cell line;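 as to OD490 Mean: blank control wells received 0.025% DMSO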;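 as to OD490 Well 1: blank control wells received 0.025% DMSO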;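 as to OD490 Well 2: blank control wells received 0.025% DMSO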;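 as to OD490 Well 3: blank control wells received 0.025% DMSO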
How it was run: as §1

In the case of `CCOC(=O)c1c(C2NC(=O)NC(C)=C2C(=O)Nc2ccccc2C)[nH]c(C(=O)OC)c1C` (centres unmarked) [D2], the “OD490 Mean” value (Caco-2 cell line; 0.5μM, first assay) is reported as 0.6270, the “OD490 Well 1” value (Caco-2 cell line; 0.5μM, first assay) is reported as 0.5887 and the “OD490 Well 2” value (Caco-2 cell line; 0.5μM, first assay) is reported as 0.6362. The “OD490 Well 3” value (Caco-2 cell line; 0.5μM, first assay) was 0.6562, the “OD490 Mean” value (Caco-2 cell line; 0.5μM, second assay) was 0.7070 and the “OD490 Well 1” value (Caco-2 cell line; 0.5μM, second assay) was 0.7084. The “OD490 Well 2” value (Caco-2 cell line; 0.5μM, second assay) was 0.7002, the “OD490 Well 3” value (Caco-2 cell line; 0.5μM, second assay) was 0.7123 and the “OD490 Mean” value (Caco-2 cell line; 0.5μM, third assay) was 0.6851. The “OD490 Well 1” value (Caco-2 cell line; 0.5μM, third assay) was 0.4885, the “OD490 Well 2” value (Caco-2 cell line; 0.5μM, third assay) was 0.8254 and the “OD490 Well 3” value (Caco-2 cell line; 0.5μM, third assay) was 0.7414. For the same compound, the “OD490 Mean” value (Caco-2 cell line; 1μM, first assay) was 0.6349, the “OD490 Well 1” value (Caco-2 cell line; 1μM, first assay) was 0.5288 and the “OD490 Well 2” value (Caco-2 cell line; 1μM, first assay) was 0.6946. For the same compound, the “OD490 Well 3” value (Caco-2 cell line; 1μM, first assay) was 0.6813, the “OD490 Mean” value (Caco-2 cell line; 1μM, second assay) was 0.7459 and the “OD490 Well 1” value (Caco-2 cell line; 1μM, second assay) was 0.7813. For the same compound, the “OD490 Well 2” value (Caco-2 cell line; 1μM, second assay) was 0.6848, the “OD490 Well 3” value (Caco-2 cell line; 1μM, second assay) was 0.7716 and the “OD490 Mean” value (Caco-2 cell line; 1μM, third assay) was 0.6746. For the same compound, the “OD490 Well 1” value (Caco-2 cell line; 1μM, third assay) was 0.6245, the “OD490 Well 2” value (Caco-2 cell line; 1μM, third assay) was 0.7010 and the “OD490 Well 3” value (Caco-2 cell line; 1μM, third assay) was 0.6982. The “OD490 Mean” value (Caco-2 cell line; 10μM, first assay) was 0.6116, the “OD490 Well 1” value (Caco-2 cell line; 10μM, first assay) was 0.5314 and the “OD490 Well 2” value (Caco-2 cell line; 10μM, first assay) was 0.6140. The “OD490 Well 3” value (Caco-2 cell line; 10μM, first assay) was 0.6893, the “OD490 Mean” value (Caco-2 cell line; 10μM, second assay) was 0.7407 and the “OD490 Well 1” value (Caco-2 cell line; 10μM, second assay) was 0.7116. The “OD490 Well 2” value (Caco-2 cell line; 10μM, second assay) was 0.7395, the “OD490 Well 3” value (Caco-2 cell line; 10μM, second assay) was 0.771 and the “OD490 Mean” value (Caco-2 cell line; 10μM, third assay) was 0.6639. For the same compound, the “OD490 Well 1” value (Caco-2 cell line; 10μM, third assay) was 0.7421, the “OD490 Well 2” value (Caco-2 cell line; 10μM, third assay) was 0.5621 and the “OD490 Well 3” value (Caco-2 cell line; 10μM, third assay) was 0.6874. For the same compound, the “OD490 Mean” value (Caco-2 cell line; 25μM, first assay) was 0.6114, the “OD490 Well 1” value (Caco-2 cell line; 25μM, first assay) was 0.5587 and the “OD490 Well 2” value (Caco-2 cell line; 25μM, first assay) was 0.6570. For the same compound, the “OD490 Well 3” value (Caco-2 cell line; 25μM, first assay) was 0.6185, the “OD490 Mean” value (Caco-2 cell line; 25μM, second assay) was 0.6775 and the “OD490 Well 1” value (Caco-2 cell line; 25μM, second assay) was 0.5825. For the same compound, the “OD490 Well 2” value (Caco-2 cell line; 25μM, second assay) was 0.7137, the “OD490 Well 3” value (Caco-2 cell line; 25μM, second assay) was 0.7364 and the “OD490 Mean” value (Caco-2 cell line; 25μM, third assay) was 0.6183. The “OD490 Well 1” value (Caco-2 cell line; 25μM, third assay) was 0.6214, the “OD490 Well 2” value (Caco-2 cell line; 25μM, third assay) was 0.6325 and the “OD490 Well 3” value (Caco-2 cell line; 25μM, third assay) was 0.6010. For the same compound, the “OD490 Mean” value (Caco-2 cell line; 50μM, first assay) was 0.5907, the “OD490 Well 1” value (Caco-2 cell line; 50μM, first assay) was 0.6013 and the “OD490 Well 2” value (Caco-2 cell line; 50μM, first assay) was 0.6084. For the same compound, the “OD490 Well 3” value (Caco-2 cell line; 50μM, first assay) was 0.5625, the “OD490 Mean” value (Caco-2 cell line; 50μM, second assay) was 0.5350 and the “OD490 Well 1” value (Caco-2 cell line; 50μM, second assay) was 0.5688. The “OD490 Well 2” value (Caco-2 cell line; 50μM, second assay) was 0.5038, the “OD490 Well 3” value (Caco-2 cell line; 50μM, second assay) was 0.5324 and the “OD490 Mean” value (Caco-2 cell line; 50μM, third assay) was 0.5761. For the same compound, the “OD490 Well 1” value (Caco-2 cell line; 50μM, third assay) was 0.6025, the “OD490 Well 2” value (Caco-2 cell line; 50μM, third assay) was 0.5936 and the “OD490 Well 3” value (Caco-2 cell line; 50μM, third assay) was 0.5321. For the same compound, the “OD490 Mean” value (Caco-2 cell line; 100μM, first assay) was 0.4815, the “OD490 Well 1” value (Caco-2 cell line; 100μM, first assay) was 0.4762 and the “OD490 Well 2” value (Caco-2 cell line; 100μM, first assay) was 0.4852. The “OD490 Well 3” value (Caco-2 cell line; 100μM, first assay) was 0.4831, the “OD490 Mean” value (Caco-2 cell line; 100μM, second assay) was 0.5288 and the “OD490 Well 1” value (Caco-2 cell line; 100μM, second assay) was 0.5278. The “OD490 Well 2” value (Caco-2 cell line; 100μM, second assay) was 0.5253, the “OD490 Well 3” value (Caco-2 cell line; 100μM, second assay) was 0.5332 and the “OD490 Mean” value (Caco-2 cell line; 100μM, third assay) was 0.5185. The “OD490 Well 1” value (Caco-2 cell line; 100μM, third assay) was 0.5637, the “OD490 Well 2” value (Caco-2 cell line; 100μM, third assay) was 0.4985 and the “OD490 Well 3” value (Caco-2 cell line; 100μM, third assay) was 0.4932. The IC50 (Caco-2 cell line; MTS assay, 24 h exposure) was 116 µM, the IC50 (T24 cell line; MTS assay, 24 h exposure) was greater than 150 µM and the “OD490 Mean” value (T24 cell line; 0.5μM, first assay) was 1.8524. For the same compound, the “OD490 Well 1” value (T24 cell line; 0.5μM, first assay) was 1.8720, the “OD490 Well 2” value (T24 cell line; 0.5μM, first assay) was 1.7367 and the “OD490 Well 3” value (T24 cell line; 0.5μM, first assay) was 1.9486. For the same compound, the “OD490 Mean” value (T24 cell line; 0.5μM, second assay) was 1.7337, the “OD490 Well 1” value (T24 cell line; 0.5μM, second assay) was 1.7425 and the “OD490 Well 2” value (T24 cell line; 0.5μM, second assay) was 1.7320. The “OD490 Well 3” value (T24 cell line; 0.5μM, second assay) was 1.7265, the “OD490 Mean” value (T24 cell line; 1μM, first assay) was 1.8992 and the “OD490 Well 1” value (T24 cell line; 1μM, first assay) was 1.8529. The “OD490 Well 2” value (T24 cell line; 1μM, first assay) was 2.1141, the “OD490 Well 3” value (T24 cell line; 1μM, first assay) was 1.7306 and the “OD490 Mean” value (T24 cell line; 1μM, second assay) was 1.7313. The “OD490 Well 1” value (T24 cell line; 1μM, second assay) was 1.6985, the “OD490 Well 2” value (T24 cell line; 1μM, second assay) was 1.7321 and the “OD490 Well 3” value (T24 cell line; 1μM, second assay) was 1.7632. For the same compound, the “OD490 Mean” value (T24 cell line; 10μM, first assay) was 1.7422, the “OD490 Well 1” value (T24 cell line; 10μM, first assay) was 1.5585 and the “OD490 Well 2” value (T24 cell line; 10μM, first assay) was 1.7096. For the same compound, the “OD490 Well 3” value (T24 cell line; 10μM, first assay) was 1.9584, the “OD490 Mean” value (T24 cell line; 10μM, second assay) was 1.7005 and the “OD490 Well 1” value (T24 cell line; 10μM, second assay) was 1.6985. For the same compound, the “OD490 Well 2” value (T24 cell line; 10μM, second assay) was 1.7032, the “OD490 Well 3” value (T24 cell line; 10μM, second assay) was 1.6999 and the “OD490 Mean” value (T24 cell line; 25μM, first assay) was 1.5770. For the same compound, the “OD490 Well 1” value (T24 cell line; 25μM, first assay) was 1.7779, the “OD490 Well 2” value (T24 cell line; 25μM, first assay) was 1.7471 and the “OD490 Well 3” value (T24 cell line; 25μM, first assay) was 1.2060. For the same compound, the “OD490 Mean” value (T24 cell line; 25μM, second assay) was 1.7524, the “OD490 Well 1” value (T24 cell line; 25μM, second assay) was 1.7747 and the “OD490 Well 2” value (T24 cell line; 25μM, second assay) was 1.7842. The “OD490 Well 3” value (T24 cell line; 25μM, second assay) was 1.6982, the “OD490 Mean” value (T24 cell line; 50μM, first assay) was 1.5326 and the “OD490 Well 1” value (T24 cell line; 50μM, first assay) was 1.7713. The “OD490 Well 2” value (T24 cell line; 50μM, first assay) was 1.4256, the “OD490 Well 3” value (T24 cell line; 50μM, first assay) was 1.4009 and the “OD490 Mean” value (T24 cell line; 50μM, second assay) was 1.6946. The “OD490 Well 1” value (T24 cell line; 50μM, second assay) was 1.6524, the “OD490 Well 2” value (T24 cell line; 50μM, second assay) was 1.6895 and the “OD490 Well 3” value (T24 cell line; 50μM, second assay) was 1.7420. For the same compound, the “OD490 Mean” value (T24 cell line; 100μM, first assay) was 1.5388, the “OD490 Well 1” value (T24 cell line; 100μM, first assay) was 1.4456 and the “OD490 Well 2” value (T24 cell line; 100μM, first assay) was 1.6062. For the same compound, the “OD490 Well 3” value (T24 cell line; 100μM, first assay) was 1.5646, the “OD490 Mean” value (T24 cell line; 100μM, second assay) was 1.4712 and the “OD490 Well 1” value (T24 cell line; 100μM, second assay) was 1.4274. The “OD490 Well 2” value (T24 cell line; 100μM, second assay) was 1.5020 and the “OD490 Well 3” value (T24 cell line; 100μM, second assay) was 1.4842.
